Source: US20230348358A1, “Serotonin Receptor Modulators” (Northeastern University, priority 2020, published 2023)
Several values for one entry are separate records, joined by “and”; a condition that tells them apart may be missing. Equal values may be shown once. Read-outs that look alike come from different tables or passages of the source.

Assays:
5HT1A [1] = target: T1, 5HT1A (Homo sapiens, UniProt P08908); assay: 5HT1A function, Gαi cAMP signaling (CHO cells); type: cell-based
T1 sequence (P08908 1-422): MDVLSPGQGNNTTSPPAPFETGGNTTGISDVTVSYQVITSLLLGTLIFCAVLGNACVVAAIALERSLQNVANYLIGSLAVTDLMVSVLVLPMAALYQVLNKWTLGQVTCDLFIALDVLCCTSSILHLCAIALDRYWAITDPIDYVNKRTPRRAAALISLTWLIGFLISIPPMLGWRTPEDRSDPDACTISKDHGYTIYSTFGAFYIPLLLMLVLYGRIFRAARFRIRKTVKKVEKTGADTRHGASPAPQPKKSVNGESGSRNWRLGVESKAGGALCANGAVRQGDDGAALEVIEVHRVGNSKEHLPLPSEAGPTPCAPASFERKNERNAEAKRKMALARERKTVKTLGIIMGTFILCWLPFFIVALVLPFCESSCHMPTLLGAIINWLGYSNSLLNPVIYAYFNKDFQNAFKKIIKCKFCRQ

C57BL/6J mice = assay: DOI-elicited head-twitch response (HTR); type: in vivo, mouse; conditions: mouse, in vivo
Excerpt: The 5-HT2A receptor is a predominant 5-HT receptor in the cortex, and serves important excitation modulation functions on glutamate pyramidal and GABA neurons.

[2] = system: mice (C57BL/6J, FVB, C58/J); assay: Locomotor behavior, compound on its own; type: in vivo, mouse; conditions: for Locomotor behavior: compound on its own or in the DOI assay
5HT7 [3] = target: T2, 5HT7 (Homo sapiens, UniProt P34969); parameters: ATCC CRL-1573 (cells); conditions: cited from earlier work
BL/6J mice = assay: Serotonin syndrome-like behavior observation; type: in vivo, mouse; conditions: mouse, in vivo
5HT2B receptors [4] = target: T3, 5HT2B receptors (Homo sapiens, UniProt P41595); assay: Affinity at 5HT2B receptors; type: binding
T3 construct: host or cells: HEK293, transient

5HT2B receptors [5] = target: T3, 5HT2B receptors; assay: 5HT2B functional assays; type: cell-based
5HT7 [6] = target: T2, 5HT7; assay: 5HT7 function, Gs-cAMP signaling (HEK293 cells); type: cell-based; parameters: ATCC CRL-1573 (cells); conditions: for Function at 5HT7: cAMP signaling
Excerpt: It is certain that the C(5) substituent impacts function. […] In FIG. 3, results of measured (S)-5-PAT scaffold yields with various function as 5HT7 ligands are compared with AS-19 and clozapine.

50 CNS/peripheral sites = assay: NIMH PDSP / NIDA evaluation at 50 CNS/peripheral sites; type: binding
5HT1A [7] = target: T1, 5HT1A; assay: Affinity (Ki) at 5HT1A, transfected HEK cells
5HT2A receptors [8] = target: T4, 5HT2A receptors (Homo sapiens, UniProt P28223); assay: biochemical; type: binding
T4 construct: host or cells: HEK293, transient

5HT2C receptors = target: T5, 5HT2C receptors (Homo sapiens, UniProt P28335); assay: 5HT2C functional assay; type: cell-based
T5 construct: host or cells: HEK293, transient
T5 sequence (P28335 33-458): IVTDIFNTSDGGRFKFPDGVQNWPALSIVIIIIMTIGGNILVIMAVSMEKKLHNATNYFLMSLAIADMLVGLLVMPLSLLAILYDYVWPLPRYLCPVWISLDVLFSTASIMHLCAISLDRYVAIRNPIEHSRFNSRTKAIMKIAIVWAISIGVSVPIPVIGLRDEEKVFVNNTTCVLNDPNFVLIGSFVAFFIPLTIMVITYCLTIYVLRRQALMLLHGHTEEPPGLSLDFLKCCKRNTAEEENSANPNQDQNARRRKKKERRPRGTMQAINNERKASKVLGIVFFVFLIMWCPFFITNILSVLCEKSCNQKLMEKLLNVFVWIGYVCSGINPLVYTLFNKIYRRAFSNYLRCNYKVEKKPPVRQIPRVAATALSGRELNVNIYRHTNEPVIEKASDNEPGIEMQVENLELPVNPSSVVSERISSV

5HT7 [9] = target: T2, 5HT7; assay: Affinity (Ki) at 5HT7, HEK293 cells stably expressing 5HT7
5HT7 [10] = target: T2, 5HT7; parameters: ATCC CRL-1573 (cells); conditions: reported human receptor data; cited from earlier work
5HT2A receptors [11] = target: T4, 5HT2A receptors; assay: 5-HT2A function in HEK cells over-expressing the receptor; type: cell-based
[12] = read-out: Affinity Ki ± SEM at 5HT1A
[13] = read-out: Affinity Ki ± SEM at 5HT7

T4 sequence (P28223 whole entry): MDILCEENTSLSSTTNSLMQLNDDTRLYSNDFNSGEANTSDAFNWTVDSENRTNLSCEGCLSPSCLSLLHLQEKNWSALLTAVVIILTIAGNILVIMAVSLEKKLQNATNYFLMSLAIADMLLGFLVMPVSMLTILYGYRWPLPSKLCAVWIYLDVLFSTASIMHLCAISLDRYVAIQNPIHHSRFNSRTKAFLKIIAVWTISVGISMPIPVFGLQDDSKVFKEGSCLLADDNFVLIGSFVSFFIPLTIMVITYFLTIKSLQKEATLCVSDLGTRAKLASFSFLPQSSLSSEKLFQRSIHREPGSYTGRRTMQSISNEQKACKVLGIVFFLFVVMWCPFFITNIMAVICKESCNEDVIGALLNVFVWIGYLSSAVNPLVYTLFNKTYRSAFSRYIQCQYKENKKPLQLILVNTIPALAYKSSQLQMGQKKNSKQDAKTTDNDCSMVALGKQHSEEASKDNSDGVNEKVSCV
T2 sequence (P34969 whole entry): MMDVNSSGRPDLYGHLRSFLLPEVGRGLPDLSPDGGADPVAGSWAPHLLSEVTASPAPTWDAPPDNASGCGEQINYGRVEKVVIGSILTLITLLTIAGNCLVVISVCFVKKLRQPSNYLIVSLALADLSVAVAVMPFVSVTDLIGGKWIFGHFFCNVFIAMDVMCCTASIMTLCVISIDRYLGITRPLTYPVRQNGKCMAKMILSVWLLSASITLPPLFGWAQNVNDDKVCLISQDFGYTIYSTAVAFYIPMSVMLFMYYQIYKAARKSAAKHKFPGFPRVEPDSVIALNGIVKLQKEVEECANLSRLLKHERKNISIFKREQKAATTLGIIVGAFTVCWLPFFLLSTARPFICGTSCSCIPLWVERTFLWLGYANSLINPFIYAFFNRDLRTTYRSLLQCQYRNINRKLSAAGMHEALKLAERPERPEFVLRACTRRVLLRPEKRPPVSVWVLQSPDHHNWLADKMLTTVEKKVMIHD
T3 sequence (P41595 whole entry): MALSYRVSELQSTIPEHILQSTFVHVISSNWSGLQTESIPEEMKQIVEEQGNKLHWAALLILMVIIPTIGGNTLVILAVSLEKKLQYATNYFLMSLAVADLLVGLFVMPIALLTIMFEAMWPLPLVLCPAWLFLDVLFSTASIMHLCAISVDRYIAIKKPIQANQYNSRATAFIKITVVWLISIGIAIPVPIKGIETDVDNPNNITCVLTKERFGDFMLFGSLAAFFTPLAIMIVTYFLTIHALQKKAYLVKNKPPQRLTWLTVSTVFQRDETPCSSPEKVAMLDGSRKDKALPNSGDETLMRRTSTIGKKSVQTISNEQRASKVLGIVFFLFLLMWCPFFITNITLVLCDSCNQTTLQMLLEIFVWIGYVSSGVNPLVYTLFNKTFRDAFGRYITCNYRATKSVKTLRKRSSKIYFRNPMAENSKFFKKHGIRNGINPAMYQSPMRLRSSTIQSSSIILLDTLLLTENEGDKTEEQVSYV

With O=C1CC2(CCCC2)CC(=O)N1CCCCN1CCN(c2ncccn2)CC1 [Buspirone, reference compound] the “Function at 5HT1A” value (5HT1A [1]) was “Partial agonist”, the “DOI-elicited HTR” value (C57BL/6J mice) was “reduces DOI-elicited repetitive behavior” and the Catatonia ([2]; 3 mg/kg, by itself) was “causes stupor-like catatonia”. For the same molecule, the Locomotor behavior [2] was “reduces locomotor behavior”.
For CCCN(CCC)[C@@H]1CCc2cccc(O)c2C1 [Compound 8-OH-DPAT, (R)-8-hydroxy-2-(n-di-propylamino)tetralin], the “Function at 5HT7 (literature)” value (5HT7 [3]) is listed as “low-potency 5HT7 partial agonist”.
For CCCN(CCC)C1CCc2cccc(O)c2C1 (single isomer, unassigned; (+)) [(+)-DPAT, reference compound], the “DOI-elicited HTR” value (C57BL/6J mice) was “suppressed the DOI HTR”, the “Serotonin syndrome” value (BL/6J mice) was “obvious serotonin syndrome” and the Locomotor behavior [2] was “severe hypolocomotion”.
With CN(C)[C@H]1CCc2c(cccc2-c2ccccc2Cl)C1.Cl [(S)-5-CPT, (2S)-5-(2-chlorophenyl)-N,N-dimethyl-1,2,3,4-tetrahydronaphthalen-2-amine HCl] the “Function at 5HT1A” value (5HT1A [1]) was “Partial agonist”, the Ki (5HT2B receptors [4]) was 11 nM and the 5HT2B functional activity (5HT2B receptors [5]) was “devoid of 5HT2B activity up to 100 μM”. For the same molecule, the “Function at 5HT7” value (5HT7 [6]) was “Partial agonist”, the “Activity at 50 CNS/peripheral sites” value (50 CNS/peripheral sites) was “without activity at 50 CNS/peripheral sites” and the Ki (5HT1A [7]; [12]) was 7.5 ± 1.5 nM. The Ki (5HT2A receptors [8]) was roughly 500 nM, the “Agonist efficacy/potency at 5HT2C receptors” value (5HT2C receptors) was “less potency and efficacy” and the Ki (5HT7 [9]; [13]) was 1 ± 0.12 nM.
Fc1ccccc1-c1cccc2c1CCC(N1CCCC1)C2 (racemic) [(R/S)-5-FPyT, 1-(5-(2-fluorophenyl)-1,2,3,4-tetrahydronaphthalen-2-yl)-pyrrolidine] gave a Ki (5HT1A [7]) of 1.3 ± 0.1 nM and a Ki (5HT7 [9]) of 51 ± 8 nM.
With CCCN(CCC)[C@H]1CCc2c(cccc2-c2ccccc2)C1.Cl [(S)-5-PPT, (2S)-5-phenyl-N,N-dipropyl-1,2,3,4-tetrahydronaphthalen-2-amine HCl] the “Function at 5HT7” value (5HT7 [6]) was “Full agonist”, the Ki (5HT1A [7]; [12]) was 5.9 ± 1.1 nM and the Ki (5HT7 [9]; [13]) was 34 ± 3 nM.
With Cc1nn(C)c(C)c1-c1cccc2c1CC[C@H](N(C)C)C2 [(S)-AS-19, (2S)-5-trimethylpyrazolyl-2-dimethyl-aminotetralin, reference compound] the “DOI-elicited HTR” value (C57BL/6J mice) was “suppressed the DOI HTR”, the “Function at 5HT7” value (5HT7 [6]) was “Partial agonist” and the Ki (5HT1A [7]; [12]) was 240 nM. The “Serotonin syndrome” value (BL/6J mice) was “neither (—)-DPAT, a 5-HT1A partial agonist, nor AS-19 affected locomotor behavior or caused obvious serotonin syndrome”, the Locomotor behavior [2] was “neither (—)-DPAT, a 5-HT1A partial agonist, nor AS-19 affected locomotor behavior” and the “Selectivity for 5HT7 over 5HT1A” value (5HT7 [9]; from Ki of Table 1) was 20 fold. For the same molecule, the Ki (5HT7 [9]; [13]) was 12 nM.
In the case of CN(C)[C@H]1CCc2c(cccc2-c2cccc3ccccc23)C1 [(S)-5-NaT, (2S)—N,N-dimethyl-5,6,7,8-tetrahydro-[1,1′-binaphthalen]-6-amine], the “Function at 5HT1A” value (5HT1A [1]) is reported as “Partial agonist”, the “Function at 5HT7” value (5HT7 [6]) is reported as “Partial agonist” and the Ki (5HT1A [7]; [12]) is reported as 64 ± 12 nM. For the same molecule, the Ki (5HT7 [9]; [13]) was 5.2 ± 1.1 nM.
For CCCN(CCC)[C@H]1CCc2c(cccc2-c2ccccc2Cl)C1 [(S)-5-CPPT, (2S)-5-(2′-chlorophenyl)-N,N-dipropyl-1,2,3,4-tetrahydronaphtha-len-2-amine], the “Function at 5HT7” value (5HT7 [6]) was “Full agonist”, the Ki (5HT1A [7]) was 0.6 ± 0.2 nM and the Ki (5HT7 [9]; [13]) was 5.9 ± 1 nM.
In the case of N#Cc1ccc(CNC(=O)CCCCCN2CCN(c3ccccc3-c3ccccc3)CC2)cc1 [LP-211], the “Selectivity for 5HT7 over 5HT1A receptors” value (5HT7 [10]) is given as “about 25 X”.
For CCCN(CCC)C1CCc2cccc(O)c2C1 (stereo not drawn) [(—)-DPAT, reference compound], the “DOI-elicited HTR” value (C57BL/6J mice) was “suppressed the DOI HTR”, the “Serotonin syndrome” value (BL/6J mice) was “neither (—)-DPAT, a 5-HT1A partial agonist, nor AS-19 affected locomotor behavior or caused obvious serotonin syndrome” and the Locomotor behavior [2] was “neither (—)-DPAT, a 5-HT1A partial agonist, nor AS-19 affected locomotor behavior”.
With CN(C)[C@H]1CCc2c(cccc2-c2cccn2C)C1 [(S)-5-PyT] the “Function at 5HT1A” value (5HT1A [1]) was “Partial agonist”, the “Function at 5HT1A” value (5HT1A [1]; listed as 5-PyT) was “agonist at 5HT1A/Gαi” and the “Function at 5HT1A” value (5HT1A [1]; listed as (2S)-5-PyT) was “agonist”. For the same molecule, the “Function at 5HT7” value (5HT7 [6]) was “Inverse agonist”, the “Function at 5HT7” value (5HT7 [6]; listed as 5-PyT) was “inverse agonist at 5HT7/Gαs” and the “Function at 5HT7” value (5HT7 [6]; listed as (2S)-5-PyT) was “inverse agonist”. It also gave a Ki (5HT1A [7]) of 24 ± 0.2 nM and a Ki (5HT7 [9]; Affinity Ki ± SEM at 5HT7) of 33 ± 4 nM.
In the case of CN(C)[C@@H]1CCc2c(cccc2-c2ccccc2F)C1 [(2R)-5-FPT], the “DOI-elicited HTR” value (C57BL/6J mice) is reported as “substantially less efficacious than (2S)-5-FPT”, the “5-HT7 agonist potency of (R)-enantiomer less than (S)-isomer” value (5HT7 [6]) is reported as “about 11 times” and the EC50 (5HT7 [6]) is reported as 378 nM. The “EMAX vs AS-19, 5-HT7 Gs-cAMP signaling” value (5HT7 [6]) was 29%, the “Function at 5HT7” value (5HT7 [6]) was “partial agonism” and the “Affinity at 5-HT2A receptors” value (5HT2A receptors [8]; human and mouse 5-HT2A receptors, compared with (2S)-5-FPT) was “substantially higher affinity”. The “Function at 5-HT2A receptors” value (5HT2A receptors [11]) was “neutral antagonist function” and the Ki (5HT7 [9]; Affinity Ki ± SEM at 5HT7) was 750 nM and ~460 nM.
With CN(C)[C@H]1CCc2c(cccc2-c2ccccc2)C1.Cl [(S)-5-PT, N,N-dimethyl-5-phenyl-1,2,3,4-tetrahydronaphthalen-2-amine HCl] the “Function at 5HT1A” value (5HT1A [1]) was “Partial agonist”, the “Function at 5HT7” value (5HT7 [6]) was “Neutral antagonist” and the Ki (5HT1A [7]) was 22 ± 3 nM. It also gave a Ki (5HT7 [9]; Affinity Ki ± SEM at 5HT7) of 9.5 ± 1.5 nM.
